Experimental data from patent publication US11267800B2, “Cyclohexyl acid triazole azines as LPA antagonists” (BRISTOL-MYERS SQUIBB COMPANY, priority 2017, dated 2022).
pIC50: −log10 of the molar value.

Biological target: T1, human LPA1 (Homo sapiens, UniProt Q92633)
T1 construct: expressed in transfected cells; host or cells: Chinese hamster ovary (CHO) cells
Experiment: LPA1 functional antagonist assay (calcium flux)
Type: cell-based
Conditions: CHO cells overexpressing human LPA1; inhibition of calcium flux induced by 10 nM LPA; read-out: hLPA1 IC50
In short: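 IC50 values come from 4-parameter logistic fits and mark 50% block of the calcium flux evoked by 10 nM LPA. Human LPA1-overexpressing CHO cells were calcium-dye loaded at 37 °C, then given test compound (0.08 nM–5 μM, 0.5% DMSO, HEPES-buffered HBSS with 0.1% fatty-acid-free BSA) for 20 min at room temperature before agonist.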

T1 sequence (Q92633 whole entry): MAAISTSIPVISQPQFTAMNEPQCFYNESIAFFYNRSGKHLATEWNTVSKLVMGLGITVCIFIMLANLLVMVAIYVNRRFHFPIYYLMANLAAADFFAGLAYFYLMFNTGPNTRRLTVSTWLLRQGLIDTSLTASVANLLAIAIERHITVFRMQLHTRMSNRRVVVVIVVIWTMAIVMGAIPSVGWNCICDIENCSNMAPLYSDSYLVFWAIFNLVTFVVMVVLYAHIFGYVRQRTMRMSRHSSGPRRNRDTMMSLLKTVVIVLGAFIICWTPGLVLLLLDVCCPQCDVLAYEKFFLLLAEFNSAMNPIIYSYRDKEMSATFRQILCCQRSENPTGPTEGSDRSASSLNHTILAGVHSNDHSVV

Row | pIC50 | SMILES
1 | 7.54 | Cc1nc(-c2nnn(C)c2COc2nccc(C(C)(C)C)n2)ccc1O[C@H]1CCC[C@H](C(=O)O)C1 [Example 332]
2 | 7.05 | CCOc1ncnc(NCc2c(-c3ccc(O[C@H]4CCC[C@H](C(=O)O)C4)c(C)n3)nnn2C)n1 [Example 208, (1S,3S)-3-((6-(5-(((4-Ethoxy-1,3,5-triazin-2-yl)amino)methyl)-1-methyl-1H-1,2,3-triazol-4-yl)-2-methyl-pyridin-3-yl)oxy)cyclohexane-1-carboxylic acid]
3 | 6.53 | Cc1nc(-c2nnn(C)c2CNc2nccc(C(C)C)n2)cnc1O[C@H]1CCC[C@H](C(=O)O)C1 [Example 135]
4 | 6.79 | CCOc1cc(NCc2c(-c3ccc(O[C@H]4CCC[C@H](C(=O)O)C4)c(C)n3)nnn2C)ncn1 [Example 272]
5 | 7.44 | Cn1nnc(-c2ccc(O[C@H]3CCC[C@H](C(=O)O)C3)cn2)c1CNc1nccc(C(C)(C)C)n1 [Example 38]
6 | 7.59 | Cn1nnc(-c2cnc(O[C@H]3CCC[C@H](C(=O)O)C3)cn2)c1CNc1nccc(-c2ccccc2)n1 [Example 27]
7 | 6.53 | Cc1nc(-c2nnn(C)c2CNc2cc(-c3ccccc3)cnn2)ccc1O[C@H]1CCC[C@H](C(=O)O)C1 [Example 214, (1S,3S)-3-((2-Methyl-6-(1-methyl-5-(((5-phenylpyridazin-3-yl)amino)methyl)-1H-1,2,3-triazol-4-yl)pyridin-3-yl)oxy)cyclohexane-1-carboxylic acid]
8 | 7.34 | Cc1nc(-c2nnn(C)c2CNc2nccc(OC(C)C)n2)ccc1O[C@H]1CCC[C@H](C(=O)O)C1 [Example 14]
9 | 7.54 | CCCCc1ncnc(NCc2c(-c3ccc(O[C@H]4CCC[C@H](C(=O)O)C4)c(C)n3)nnn2C)n1 [Example 199, (1S,3S)-3-((6-(5-(((4-Butyl-1,3,5-triazin-2-yl)amino)methyl)-1-methyl-1H-1,2,3-triazol-4-yl)-2-methyl-pyridin-3-yl)oxy)cyclohexane-1-carboxylic acid]
10 | 6.86 | Cc1nc(-c2nnn(C)c2CNc2cc(OC3CC3)cnn2)ccc1O[C@H]1CCC[C@H](C(=O)O)C1 [Example 219, (1S,3S)-3-((6-(5-(((5-Cyclopropoxy-pyridazin-3-yl)amino)methyl)-1-methyl-1H-1,2,3-triazol-4-yl)-2-methylpyridin-3-yl)oxy)cyclohexane-1-carboxylic acid]
11 | 6.65 | Cc1ccc(Oc2ccnc(NCc3c(-c4ccc(O[C@H]5CCC[C@H](C(=O)O)C5)c(C)n4)nnn3C)n2)cc1 [Example 106]
12 | 8.03 | CCc1nc(-c2nnn(C)c2CNc2nccc(C(C)C)n2)ccc1O[C@H]1CCC[C@H](C(=O)O)C1 [Example 389]
13 | 7.10 | Cn1nnc(-c2ccc(O[C@H]3CCC[C@H](C(=O)O)C3)cn2)c1COc1cc(C(F)(F)F)ncn1 [Example 368]
14 | 7.12 | CCNc1nc(OCc2c(-c3ccc(O[C@H]4CCC[C@H](C(=O)O)C4)c(C)n3)nnn2C)ncc1F [Example 264]
15 | 6.68 | Cc1nc(-c2nnn(C)c2CN(C)c2ncnc(C(C)C)n2)ccc1O[C@H]1CCC[C@H](C(=O)O)C1 [Example 328, (1S,3S)-3-((6-(5-(((4-Isopropyl-1,3,5-triazin-2-yl)(methyl)amino)methyl)-1-methyl-1H-1,2,3-triazol-4-yl)-2-methylpyridin-3-yl)oxy)cyclohexane-1l-carboxylic acid]
16 | 7.60 | Cc1nc(-c2nnn(C)c2COc2cncc(Oc3ccccc3)n2)ccc1O[C@H]1CCC[C@H](C(=O)O)C1 [Example 340]
17 | 6.47 | Cc1nc(-c2nnn(C)c2COc2nccc(-n3cccn3)n2)ccc1O[C@H]1CCC[C@H](C(=O)O)C1 [Example 327]
18 | 5.92 | Cc1nc(-c2nnn(C)c2COc2nccc(N3CCC3)n2)ccc1O[C@H]1CCC[C@H](C(=O)O)C1 [Example 349]

Row | SMILES | pIC50
19 | Cc1nc(-c2nnn(C)c2CNc2ncnc(OC3CCC3)n2)ccc1O[C@H]1CCC[C@H](C(=O)O)C1 [Example 211, (1S,3S)-3-((6-(5-(((4-cyclobutoxy-1,3,5-triazin-2-yl)amino)methyl)-1-methyl-1H-1,2,3-triazol-4-yl)-2-methylpyridin-3-yl)oxy)cyclohexane-1-carboxylic acid] | 6.99
